Measured values published in the NIST ThermoML archive (doi:10.1016/j.jct.2018.01.015).

Assay: xn = mol fraction of the nth substance listed
Conditions: Gas, rotating-body viscometer for gases

N#N [nitrogen] + O=C=O
Conditions	viscosity [mPa·s]
323.22 K, 200.9 kPa, x1 = 0.4996	0.0177
323.22 K, 398.6 kPa, x1 = 0.4996	0.01773
323.22 K, 399.4 kPa, x1 = 0.2479	0.01695
323.22 K, 598 kPa, x1 = 0.4996	0.01776
323.22 K, 605 kPa, x1 = 0.2479	0.01698
323.22 K, 798.9 kPa, x1 = 0.2479	0.01701
323.22 K, 804.9 kPa, x1 = 0.4996	0.0178
323.22 K, 996.4 kPa, x1 = 0.4996	0.01783
323.22 K, 1001.8 kPa, x1 = 0.2479	0.01705
323.22 K, 1196.8 kPa, x1 = 0.2479	0.0171
323.22 K, 1198.6 kPa, x1 = 0.4996	0.01787
323.26 K, 100.6 kPa, x1 = 1	0.0189
323.26 K, 101.5 kPa, x1 = 1	0.0189
323.26 K, 200.7 kPa, x1 = 1	0.0189
323.26 K, 400.4 kPa, x1 = 1	0.01893
323.26 K, 600.8 kPa, x1 = 1	0.01896
323.26 K, 800.2 kPa, x1 = 1	0.01896
323.26 K, 1000.6 kPa, x1 = 1	0.01901
323.26 K, 1000.9 kPa, x1 = 1	0.01901
323.27 K, 398.8 kPa, x1 = 1	0.01893
323.27 K, 1501.9 kPa, x1 = 1	0.01907
323.27 K, 1802.1 kPa, x1 = 1	0.01913
373.25 K, 103.3 kPa, x1 = 0.2479	0.01923
373.25 K, 107.8 kPa, x1 = 0.4996	0.01998
373.25 K, 200.1 kPa, x1 = 0.2479	0.01925
373.25 K, 200.7 kPa, x1 = 0.4996	0.02
373.25 K, 391.3 kPa, x1 = 0.4996	0.02002
373.25 K, 400.6 kPa, x1 = 0.2479	0.01928
373.25 K, 598.5 kPa, x1 = 0.4996	0.02005
373.25 K, 601.5 kPa, x1 = 0.2479	0.0193
373.25 K, 799.5 kPa, x1 = 0.4996	0.02008
373.25 K, 802.2 kPa, x1 = 0.2479	0.01933
373.25 K, 998.6 kPa, x1 = 0.4996	0.02011
373.25 K, 999.6 kPa, x1 = 0.2479	0.01937
373.25 K, 1498 kPa, x1 = 0.4996	0.0202
373.25 K, 1498.2 kPa, x1 = 0.2479	0.01947
373.29 K, 100.8 kPa, x1 = 1	0.02102
373.29 K, 201.1 kPa, x1 = 1	0.02104
373.29 K, 401 kPa, x1 = 1	0.02106
373.29 K, 601 kPa, x1 = 1	0.02107
373.29 K, 1000.3 kPa, x1 = 1	0.02111
373.29 K, 1500.6 kPa, x1 = 1	0.02118
373.29 K, 1807.2 kPa, x1 = 1	0.02122
373.57 K, 108.8 kPa, x1 = 0.7498	0.02061
373.57 K, 199.2 kPa, x1 = 0.7498	0.02064
373.57 K, 399.3 kPa, x1 = 0.7498	0.02065
373.57 K, 598.2 kPa, x1 = 0.7498	0.02068
373.57 K, 1002.4 kPa, x1 = 0.7498	0.02073
373.57 K, 1501.2 kPa, x1 = 0.7498	0.02081
373.57 K, 2041.9 kPa, x1 = 0.7498	0.02091
423.27 K, 108.9 kPa, x1 = 0.7498	0.02271
423.27 K, 200.4 kPa, x1 = 0.7498	0.02272
423.27 K, 398.7 kPa, x1 = 0.7498	0.02274
423.27 K, 600.7 kPa, x1 = 0.7498	0.02275
423.27 K, 1000.3 kPa, x1 = 0.7498	0.02281
423.27 K, 1500.1 kPa, x1 = 0.7498	0.02287
423.27 K, 2000 kPa, x1 = 0.7498	0.02293
423.28 K, 107.7 kPa, x1 = 0.2479	0.02144
423.28 K, 109.4 kPa, x1 = 0.4996	0.02216
423.28 K, 199.9 kPa, x1 = 0.4996	0.02216
423.28 K, 400 kPa, x1 = 0.4996	0.02219
423.28 K, 603 kPa, x1 = 0.4996	0.02221
423.28 K, 1001.7 kPa, x1 = 0.4996	0.02226
423.28 K, 1496.5 kPa, x1 = 0.4996	0.02233
423.28 K, 1995 kPa, x1 = 0.4996	0.02242
423.29 K, 201.4 kPa, x1 = 0.2479	0.02145
423.29 K, 405.1 kPa, x1 = 0.2479	0.02148
423.29 K, 601.1 kPa, x1 = 0.2479	0.02151
423.29 K, 1000.7 kPa, x1 = 0.2479	0.02156
423.29 K, 1495.1 kPa, x1 = 0.2479	0.02165
423.29 K, 1998.5 kPa, x1 = 0.2479	0.02175
423.33 K, 100.9 kPa, x1 = 1	0.02302
423.33 K, 200.9 kPa, x1 = 1	0.02303
423.33 K, 400.7 kPa, x1 = 1	0.02306
423.33 K, 600.6 kPa, x1 = 1	0.02308
423.33 K, 1000.5 kPa, x1 = 1	0.02311
423.33 K, 1500.2 kPa, x1 = 1	0.02316
423.33 K, 1799.4 kPa, x1 = 1	0.02319
473.31 K, 108.7 kPa, x1 = 0.7498	0.0247
473.31 K, 199 kPa, x1 = 0.7498	0.02471
473.31 K, 399 kPa, x1 = 0.7498	0.02472
473.31 K, 602.8 kPa, x1 = 0.7498	0.02474
473.31 K, 1003.8 kPa, x1 = 0.7498	0.02477
473.31 K, 1501.4 kPa, x1 = 0.7498	0.02482
473.31 K, 1996.7 kPa, x1 = 0.7498	0.02489
473.32 K, 108.1 kPa, x1 = 0.4996	0.02422
473.32 K, 203.7 kPa, x1 = 0.4996	0.02423
473.32 K, 400.1 kPa, x1 = 0.4996	0.02424
473.32 K, 602.4 kPa, x1 = 0.4996	0.02427
473.32 K, 1006.2 kPa, x1 = 0.4996	0.02431
473.32 K, 1503 kPa, x1 = 0.4996	0.02437
473.32 K, 1991.9 kPa, x1 = 0.4996	0.02444
473.34 K, 109.3 kPa, x1 = 0.2479	0.02355
473.34 K, 203.1 kPa, x1 = 0.2479	0.02356
473.34 K, 395.8 kPa, x1 = 0.2479	0.02358
473.34 K, 597.3 kPa, x1 = 0.2479	0.02359
473.34 K, 1000.4 kPa, x1 = 0.2479	0.02365
473.34 K, 1495.4 kPa, x1 = 0.2479	0.02373
473.34 K, 1998.5 kPa, x1 = 0.2479	0.02382
473.38 K, 100.7 kPa, x1 = 1	0.02494
473.38 K, 200.8 kPa, x1 = 1	0.02495
473.38 K, 398.5 kPa, x1 = 1	0.02496
473.38 K, 600.9 kPa, x1 = 1	0.02497
473.38 K, 1000.7 kPa, x1 = 1	0.02499
473.38 K, 1500.6 kPa, x1 = 1	0.02503
473.38 K, 1799.3 kPa, x1 = 1	0.02505
